Test system: rats
Assay: Tail-flick (focal-ray) test on rats
Format: in vivo, rat
Conditions: female Sprague Dawley rats, intravenous, 1.46 mg/kg morphine only, measured 10, 20, 40 and 60 min after application, FIGS. 1 and 2
Excerpt: The analgesic effect of the inventive active substance combinations and the comparative solutions was investigated in the focal-ray (tail-flick) test on rats according to D'Amour and Smith, J. Pharm. Exp. Ther. Vol. 72, pages 74-79, 1941. For this, female Sprague Dawley rats (Janvier, France) weighing between 120 and 150 g were used.
The rats were each placed in a test cage and the base of the tail exposed to the focused radiant heat from an electric lamp (tail-flick type 50/08/1.bc, Labtec, Dr. Hess). The lamp intensity was set so that the time from when the lamp was switched on until the tail was suddenly jerked away (pain latency) was 3 to 5 seconds in untreated rats. Before the application of the inventive active substance combinations and the comparative solutions, the rats were pre-tested twice within five minutes and the mean value of these measurements calculated as the pre-test mean value. The solutions of the inventive active substance combinations and the comparative solutions were then applied intravenously. The pain measurements were performed at 10, 20, 40 and 60 minutes respectively after the intravenous application. The analgesic effect was determined as an increase in the pain latency (% of the maximum possible antinociceptive effect) according to the following formula: […]

CN1CC[C@]23c4c5ccc(O)c4O[C@H]2[C@@H](O)C=C[C@H]3[C@H]1C5 [Comparative Example 1, morphine]
analgesic effect (increase in pain latency, % of the maximum possible antinociceptive effect): good analgesic effect

Reference: patent publication US20040116352A1, “Active substance combination containing a compound with an opioid effect and at least one further compound of formula 1” (priority 2000, published 2004)
